According to patent US9938322B2, “β-hairpin peptidomimetics” (priority 2013, dated 2018):
Where a SMILES comes first, the peptide text is derived from it. [ ]: non-standard residue; d: D form. Cha = N[C@@H](CC1CCCCC1)C(=O)O; aThr = C[C@H](O)[C@H](N)C(=O)O; Chg = N[C@H](C(=O)O)C1CCCCC1; Tle = CC(C)(C)[C@H](N)C(=O)O; dDab = NCC[C@@H](N)C(=O)O; Orn = NCCC[C@H](N)C(=O)O; Dab = NCC[C@H](N)C(=O)O; Nva = CCC[C@H](N)C(=O)O; Dap = NC[C@H](N)C(=O)O

System: human red blood cells (hRBC)
Experiment: Hemolysis of human red blood cells
Assay type: cell-based
Details: red cells of human, 1 h, 100
Method in brief: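 Washed fresh human erythrocytes (20% v/v, about 0.9×10^9 cells/ml final) incubated with peptide at 100 μg/ml for 1 h at 37° C with shaking. Supernatant OD540 read; hemolysis expressed relative to 2.5% Triton X-100 (100%) and PBS with 0.001% acetic acid (0%).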

Row | Structure (SMILES) | Hemolysis at 100 μg/ml [%]
1 | CC[C@H](C)[C@@H]1NC(=O)[C@@H]2CCCN2C(=O)[C@H]2CCCN2C(=O)[C@H](CO)NC(=O)[C@H](C)NC(=O)[C@H](C(C)(C)C)NC(=O)[C@H](CCN)NC(=O)[C@H](Cc2c[nH]c3ccccc23)NC(=O)[C@H](CCN)NC(=O)[C@@H](CCN)NC(=O)[C@H](CCCN)NC(=O)[C@H](CCN)NC(=O)[C@H](Cc2ccc(O)cc2)NC(=O)[C@H]([C@H](C)O)NC1=O [compound 86] (cyclo(I[aThr]Y[Dab][Orn][dDab][Dab]W[Dab][Tle]AS[dP]P)) | 1
2 | CC(C)C[C@@H]1NC(=O)[C@@H]2CCCN2C(=O)[C@H]2CCCN2C(=O)[C@H](CO)NC(=O)[C@H](C)NC(=O)[C@H](C(C)(C)C)NC(=O)[C@H](CCN)NC(=O)[C@H](Cc2c[nH]c3ccccc23)NC(=O)[C@H](CCN)NC(=O)[C@@H](CCN)NC(=O)[C@H](CCCN)NC(=O)[C@H](CCCN)NC(=O)[C@H](Cc2ccc(O)cc2)NC(=O)[C@H](CO)NC1=O [compound 87] (cyclo(LSY[Orn][Orn][dDab][Dab]W[Dab][Tle]AS[dP]P)) | 1
3 | CC(C)C[C@@H]1NC(=O)[C@@H]2CCCN2C(=O)[C@H]2CCCN2C(=O)[C@H]([C@@H](C)O)NC(=O)[C@H](C)NC(=O)[C@H](C(C)(C)C)NC(=O)[C@H](CCN)NC(=O)[C@H](Cc2c[nH]c3ccccc23)NC(=O)[C@H](CCN)NC(=O)[C@@H](CCN)NC(=O)[C@H](CCCN)NC(=O)[C@H](CCN)NC(=O)[C@H](Cc2ccc(O)cc2)NC(=O)[C@H](CO)NC1=O [compound 88] (cyclo(LSY[Dab][Orn][dDab][Dab]W[Dab][Tle]AT[dP]P)) | 1
4 | CCC[C@@H]1NC(=O)[C@@H]2CCCN2C(=O)[C@H]2CCCN2C(=O)[C@H](CO)NC(=O)[C@H](C)NC(=O)[C@H](C2CCCCC2)NC(=O)[C@H](CCN)NC(=O)[C@H](Cc2c[nH]c3ccccc23)NC(=O)[C@H](CCN)NC(=O)[C@@H](CCN)NC(=O)[C@H](CCCN)NC(=O)[C@H](CCN)NC(=O)[C@H](Cc2ccc(O)cc2)NC(=O)[C@H](CO)NC1=O [compound 89] (cyclo([Nva]SY[Dab][Orn][dDab][Dab]W[Dab][Chg]AS[dP]P)) | 0
5 | CC(C)[C@@H]1NC(=O)[C@@H]2CCCN2C(=O)[C@H]2CCCN2C(=O)[C@H](CO)NC(=O)[C@H](C)NC(=O)[C@H](C2CCCCC2)NC(=O)[C@H](CCN)NC(=O)[C@H](Cc2c[nH]c3ccccc23)NC(=O)[C@H](CCN)NC(=O)[C@@H](CCN)NC(=O)[C@H](CCCN)NC(=O)[C@H](CCN)NC(=O)[C@H](Cc2ccc(O)cc2)NC(=O)[C@H](CO)NC1=O [compound 90] (cyclo(VSY[Dab][Orn][dDab][Dab]W[Dab][Chg]AS[dP]P)) | 2
6 | CC(C)C[C@@H]1NC(=O)[C@@H]2CCCN2C(=O)[C@H]2CCCN2C(=O)[C@H](CO)NC(=O)[C@H](C)NC(=O)[C@H](C(C)(C)C)NC(=O)[C@H](CCN)NC(=O)[C@H](Cc2c[nH]c3ccccc23)NC(=O)[C@H](CCN)NC(=O)[C@@H](CCN)NC(=O)[C@H](CCCN)NC(=O)[C@H](CN)NC(=O)[C@H](Cc2ccc(O)cc2)NC(=O)[C@H](CO)NC1=O [compound 91] (cyclo(LSY[Dap][Orn][dDab][Dab]W[Dab][Tle]AS[dP]P)) | 0
7 | CC(C)[C@@H]1NC(=O)[C@@H]2CCCN2C(=O)[C@H]2CCCN2C(=O)[C@H](CO)NC(=O)[C@H](C)NC(=O)[C@H](CC2CCCCC2)NC(=O)[C@H](CCN)NC(=O)[C@H](Cc2c[nH]c3ccccc23)NC(=O)[C@H](CCN)NC(=O)[C@@H](CCN)NC(=O)[C@H](CCCN)NC(=O)[C@H](CCN)NC(=O)[C@H](Cc2ccc(O)cc2)NC(=O)[C@H](CO)NC1=O [compound 92] (cyclo(VSY[Dab][Orn][dDab][Dab]W[Dab][Cha]AS[dP]P)) | 5
